The values below come from patent US7326700B2, “Cyclohexenyl phenyl carboxamides tocolytic oxytocin receptor antagonists” (Wyeth, priority 2001, dated 2008).

Where a name gives a salt, the structure may show the parent alone.

What is called inhibition is the share of the control response that was lost under treatment. By IC50 is commonly meant the concentration needed to halve the response being measured.

The first assay has as its target T1, human oxytocin receptor (Homo sapiens, UniProt P30559).
T1 construct: host or cells: CHO cells, stably transfected (pcDNA3.1 vector)
T1 sequence (P30559 1-389): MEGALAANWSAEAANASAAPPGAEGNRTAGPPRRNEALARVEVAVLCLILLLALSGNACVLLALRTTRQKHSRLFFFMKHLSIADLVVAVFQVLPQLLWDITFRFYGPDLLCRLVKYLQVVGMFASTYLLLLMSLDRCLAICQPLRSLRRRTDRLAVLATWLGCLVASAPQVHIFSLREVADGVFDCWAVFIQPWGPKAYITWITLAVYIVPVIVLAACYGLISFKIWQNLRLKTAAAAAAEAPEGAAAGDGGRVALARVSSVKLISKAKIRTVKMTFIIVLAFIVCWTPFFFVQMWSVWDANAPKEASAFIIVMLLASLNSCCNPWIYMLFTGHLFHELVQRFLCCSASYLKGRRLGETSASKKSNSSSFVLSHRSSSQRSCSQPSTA
The assay can be described thus: Oxytocin binding in CHO cell membranes expressing human oxytocin receptors ([3H]oxytocin radioligand binding). The note with it: 100 nM. The text has this:
Chinese Hamster Ovary (CHO) cells stably transfected with the human oxytocin recptor (cf. Tanizawa et al., U.S. Pat. No. 5,466,584 (1995) to Rohto Pharmaceutical Co. Ltd., Osaka, Japan) were obtained from M. Thibonnier, Case Western Reserve University School of Medicine, Cleveland, Ohio.
CHO cells transfected with the human oxytocin receptors obtained from M. Thibonnier (pcDNA3.1 vector) are allowed to grow to confluency (approx. >90%) in T-150 flasks under sterile conditions, in a cell culture medium consisting of F-12 Nutrient Mixture (HAM) with L-glutamine (Gibco Cat. #11765-054) containing 15 mM HEPES (Gibco Cat. #15630-080), 1% antibiotic/antimycotic (add 5 mL 1 00×, Gibco Cat. #15240-062 per 500 mL F-12), 400 μg/mL of Geneticin (add 4 mL of 50 mg/mL per 500 mL F-12) and 10% Fetal Bovine Serum (Qualified, heat inactivated, Gibco Cat. #16140-063). The medium is removed by aspiration and the cells are washed with 10 mL of Hank's Balanced Salt solution (Gibco Cat. #14175-095). The salt solution is removed by aspiration and the cells trypsinized with 5 mL of trypsin-EDTA (0.05% trypsin, 0.53 mM EDTA-4Na, Gibco Cat. #25300-070) for 1 min The trypsin is removed by aspiration and the cells dislodged by tapping. Cell Culture medium (e.g. 30 mL for 1:30 split) is immediately added and mixed well to inactivate trypsin. 1 mL of detached cells is added to new culture flasks containing fresh Cell Culture medium (e.g. into 25 mL per T-150 flask), and mixed gently. The cells are incubated at 37° C. in 5% CO2. The medium is changed at 3 to 4 days interval (or as appropriate). The cells grow to confluency (approx. >75%-95%) within 7-8 days. All steps are done under sterile conditions.
The cells are washed twice gently with Hank's Balanced Salt solution (eg, use 10 mL per T-150 flask). The excess solution is removed and the cells bathed for 15-30 min. in an enzyme-free Cell Dissociation Buffer (eg, use 8 mL Hank's Based, Gibco Cat. #13150-016 per T-150 flask) until cells are loosened. The contents are transferred to centrifuge tubes (50 mL size) kept in ice bath. All subsequent steps are done at 4° C. The tubes are centrifuged at 300×g for 15 min (1380 rpm on SORVAL, Model RT6000D, using rotor for 50 mL tubes). The supernatant is discarded and the cells suspended in homogenizing buffer (10 mM Tris-HCl containing 0.25 M sucrose and 1 mM EDTA, pH 7.4) ensuring that the volume of the buffer is about ten times the volume of the cell pellet. The cells are pooled into a centrifuge tube (50 mL) and homogenized with a Polytron at setting 6 for 10 sec. The homogenate is transferred into a Potter-Elvjehm homogenizer and homogenized with 3 strokes. The homogenate is centrifuged at 1500×g for 10 min at 4° C. (3100 rpm using SORVAL, model RT6000D, using rotor for 50 mL tubes). The pellet is discarded. The supernatant is centrifuged at 100,000×g for 60 min. at 4° C. (Beckman L8-80M ultracentrifuge; spin at 37,500 rpm with rotor type 70 Ti for 50 mL tubes; 38,000 rpm with type 80 Ti for 15 mL tubes; or 35,800 rpm with rotor type 45Ti). The supernantant is discarded and the pellet suspended in 3 to 4 mL of Tris buffer (50 mM TRIS-HCl, pH 7.4). The protein content is estimated by the Bradford or Lowry method. The volume of the membrane suspension is adjusted with the membrane buffer (50 mM Tris-HCl containing 0.1% BSA and 0.1 mM PMSF) to give 3.0 mg/mL (or as appropriate) of protein. The membranes are aliquoted and stored at −70° C.
In wells of a 96-well format microtiter plate, is added 90, 110 or 130 μL (to make up a final volume of 200 μL) of assay buffer containing 50 mM of Tris-HCl (pH 7.4), […], 1 mg % aprotinin, 1 mg % leupeptin, 2 mg % 1,10-phenanthroline, 10 mg % trypsin inhibitor, and 0.1 mM PMSF. The inhibitors are added on the day of the experiment. The components are mixed at room temperature, and then kept in ice bath following adjustment of the pH to 7.4. […]
On to `Cc1cc(C(=O)N2Cc3ccc(C(=O)N4CCCN(C)CC4)n3Cc3ccccc32)ccc1C1=CCCCC1` [Example 13, {10-[4-(1-Cyclohex-1-en-1-yl)-3-methylbenzoyl]-10,11-dihydro-5H-pyrrolo[2,1-c][1,4]benzodiazepin-3-yl}(4-methyl-1,4-diazepan-1-yl)methanone], for which the “OT % inhibition @ 100 nM” value was 90%.
On the same count and under the same terms, in the case of `Cc1cc(C(=O)N2Cc3ccc(C(=O)NCCCN(C)C)n3Cc3ccccc32)ccc1C1=CCCCC1` [Example 14, 10-[4-(1-Cyclohex-1-en-1-yl)-3-methylbenzoyl]-N-[3-(dimethylamino)propyl]-10,11-dihydro-5H-pyrrolo[2,1-c][1,4]benzodiazepine-3-carboxamide] it was 57%; in that of `Cc1cc(C(=O)N2Cc3ccc(C(=O)N(C)CCN(C)C)n3Cc3ccccc32)ccc1C1=CCCCC1` [Example 15, 10-[4-(1-Cyclohex-1-en-1-yl)-3-methylbenzoyl]-N-[2-(dimethylamino)ethyl]-N-methyl-10,11-dihydro-5H-pyrrolo[2,1-c][1,4]benzodiazepine-3-carboxamide], 99%; in that of `Cc1cc(C(=O)N2Cc3ccc(C(=O)N(C)CCCN(C)C)n3Cc3ccccc32)ccc1C1=CCCCC1` [Example 16, 10-[4-(1-Cyclohex-1-en-1-yl)-3-methylbenzoyl]-N-[3-(dimethylamino)propyl]-N-methyl-10,11-dihydro-5H-pyrrolo[2,1-c][1 ,4]benzodiazepine-3-carboxamide], 99%.
Same read-out and setting: in the case of `Cc1cc(C(=O)N2Cc3ccc(C(=O)N4CCC(N5CCCCC5)CC4)n3Cc3ccccc32)ccc1C1=CCCCC1` [Example 17, {10-[4-(1-Cyclohex-1-en-1-yl)-3-methylbenzoyl]-10,11-dihydro-5H-pyrrolo[2,1-c][1,4]benzodiazepin-3-yl}[4-(1-piperidinyl)-1-piperidinyl]methanone] it was 86%.
As for `Cc1cc(C(=O)N2Cc3ccc(C(=O)NCCCn4ccnc4)n3Cc3ccccc32)ccc1C1=CCCCC1` [Example 18, 10-[4-(1-Cyclohex-1-en-1-yl)-3-methylbenzoyl]-N-[3-(1H-imidazol-1-yl)propyl]10,11-dihydro-5H-pyrrolo[2,1-c][1,4]benzodiazepine-3-carboxamide], the “OT % inhibition @ 100 nM” value is listed as 41%.
For the compound `Cc1cc(C(=O)N2Cc3ccc(C(=O)N4CCC(N5CCCC5)CC4)n3Cc3ccccc32)ccc1C1=CCCCC1` [Example 19, {10-[4-(1-Cyclohex-1-en-1-yl)-3-methylbenzoyl]-10,11-dihydro-5H-pyrrolo[2,1c][1,4]benzodiazepin-3-yl}[4-(1-pyrrolidinyl)-1-piperidinyl]methanone], the “OT % inhibition @ 100 nM” value was 82%.

Still in this assay, the particulars now being: 100 nM, read-out: OT % inhibition @ 100 nM.
For `COc1cc(C2=CCCCC2)c(Cl)cc1C(=O)N1Cc2ccc(C(=O)N(C)CCCN(C)C)n2Cc2ccccc21` [Example 2, 10-(5-Chloro-4-cyclohex-1-en-1-yl-2-methoxybenzoyl)-N-[3-(dimethylamino)propyl]-N-methyl-10,11-dihydro-5H-pyrrolo[2,1-c][1,4]benzodiazepine-3-carboxamide], the inhibition at 0.1 µM was determined as 100%.
Consider `Cc1cc(C(=O)N2Cc3ccc(C(=O)N4CCN(CCCN(C)C)CC4)n3Cc3ccccc32)ccc1C1=CCCCC1` [Example 5, [10-(4-Cyclohex-1-en-1-yl-3-methyl-benzoyl)-10,11-dihydro-5H-pyrrolo[2,1-c][1,4]benzodiazepin-3-yl]-[4-(3-dimethylamino-propyl)-piperazin-1-yl]-methanone], for which the inhibition at 0.1 µM stood at 94%.
In the case of `Cc1cc(C(=O)N2Cc3ccc(C(=O)N4CCN(CCCN(C)C)CC4)n3Cc3ccccc32)ccc1C1=CCCc2ccccc21` [Example 7, {10-[4-(3,4-Dihydro-naphthalen-1-yl)-3-methyl-benzoyl]-10,11-dihydro-5H-pyrrolo[2,1-c][1,4]benzodiazepin-3-yl}-[4-(3-dimethylamino-propyl)-piperazin-1-yl]-methanone], the inhibition at 0.1 µM is 91%.
`CC1=C(c2ccc(C(=O)N3Cc4ccc(C(=O)N5CCN(C)CC5)n4Cc4ccccc43)cc2C)CCCC1O` (stereo not shown) [Example 10, [4-(3-Hydroxy-2-methyl-cyclohex-1-en-1-yl)-3-methyl-phenyl]-[3-(4-methyl-piperazine-1carbonyl)-10,11-dihydro-5H-pyrrolo[2,1-c][1,4]benzodiazepin-10-yl]-methanone]: the inhibition at 0.1 µM amounted to 91%.
Take `CC1=C(c2ccc(C(=O)N3Cc4ccc(C(=O)N5CCN(C)CC5)n4Cc4ccccc43)cc2C)CCC[C@H]1O` [Example 11, [4-((3R)-3-Hydroxy-2-methyl-cyclohex-1-en-1-yl)-3-methyl-phenyl]-[3-(4-methyl-piperazine-1-carbonyl)-10,11-dihydro-5H-pyrrolo [2,1-c][1,4]benzodiazepin-10-yl]-methanone]: the inhibition at 0.1 µM turned out to be 86%.

The same assay, now with this note: value in parentheses, read-out: OT (IC50).
Regarding `COc1cc(C2=CCCCC2)c(Cl)cc1C(=O)N1Cc2ccc(C(=O)N3CCC[C@H]3CN3CCCC3)n2Cc2ccccc21` [Example 1, 4-Chloro-5-cyclohex-1-en-1-yl-2-[(3-{[(2S)-2-(pyrrolidin-1-ylmethyl)pyrrolidin-1-yl]carbonyl}-5H-pyrrolo [2,1-c][1,4]benzodiazepin-10(11H)-yl)carbonyl]phenyl methyl ether], the IC50 is 1.88 nM.
As for `COc1cc(C2=CCCCC2)c(Cl)cc1C(=O)N1Cc2ccc(C(=O)N(C)CCCN(C)C)n2Cc2ccccc21` [Example 3, 10-(5-Chloro-4-cyclohex-1-en-1-yl-2-methoxybenzoyl)-N-[3-(dimethylamino)propyl]-N-methyl-10,11-dihydro-5H-pyrrolo[2,1-c][1,4]benzodiazepine-3-carboxamide citric acid salt], the IC50 is 9.04 nM.
On the same count and under the same terms, in the case of `Cc1cc(C(=O)N2Cc3ccc(C(=O)N4CCN(C)CC4)n3Cc3ccccc32)ccc1C1=CCCCC1` [Example 4, [10-(4-Cyclohex-1-en-1-yl-3-methyl-benzoyl)-10,11-dihydro-5H-pyrrolo[2,1-c][1,4]benzodiazepin-3-yl]-(4-methyl-piperazin-1-yl)-methanone] it was 7.47 nM; in that of `Cc1cc(C(=O)N2Cc3ccc(C(=O)N4CCN(C)CC4)n3Cc3ccccc32)ccc1C1=CCCc2ccccc21` [Example 6, {10-[4-(3,4-Dihydro-naphthalen-1-yl)-3-methyl-benzoyl]-10,11-dihydro-5H-benzo[e]pyrrolo[1,2-a][1,4]diazepin-3-yl}-(4-methyl-piperazin-1-yl)-methanone], 25.3 nM.
